In general, IC50 refers to the point on the concentration scale where inhibition reaches its midpoint.

Activity calls are given as the source filed them. How the calls were made is not given here.

The target of the experiment is Ubiquitin carboxyl-terminal hydrolase 8 (Homo sapiens) (UniProt P40818). In words: Ubiquitin-specific protease 8 inhibitors, concentration-effect, biochemical, validation of initial actives (AID 1645862).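 Further: potency reflects inhibition of USP8 cleavage of a ubiquitin rhodamine substrate.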 The note with it: recombinant USP8 deubiquitinase activity assay.
Ubiquitin carboxyl-terminal hydrolase 8 (Homo sapiens), sequence (P40818 whole entry, looked up): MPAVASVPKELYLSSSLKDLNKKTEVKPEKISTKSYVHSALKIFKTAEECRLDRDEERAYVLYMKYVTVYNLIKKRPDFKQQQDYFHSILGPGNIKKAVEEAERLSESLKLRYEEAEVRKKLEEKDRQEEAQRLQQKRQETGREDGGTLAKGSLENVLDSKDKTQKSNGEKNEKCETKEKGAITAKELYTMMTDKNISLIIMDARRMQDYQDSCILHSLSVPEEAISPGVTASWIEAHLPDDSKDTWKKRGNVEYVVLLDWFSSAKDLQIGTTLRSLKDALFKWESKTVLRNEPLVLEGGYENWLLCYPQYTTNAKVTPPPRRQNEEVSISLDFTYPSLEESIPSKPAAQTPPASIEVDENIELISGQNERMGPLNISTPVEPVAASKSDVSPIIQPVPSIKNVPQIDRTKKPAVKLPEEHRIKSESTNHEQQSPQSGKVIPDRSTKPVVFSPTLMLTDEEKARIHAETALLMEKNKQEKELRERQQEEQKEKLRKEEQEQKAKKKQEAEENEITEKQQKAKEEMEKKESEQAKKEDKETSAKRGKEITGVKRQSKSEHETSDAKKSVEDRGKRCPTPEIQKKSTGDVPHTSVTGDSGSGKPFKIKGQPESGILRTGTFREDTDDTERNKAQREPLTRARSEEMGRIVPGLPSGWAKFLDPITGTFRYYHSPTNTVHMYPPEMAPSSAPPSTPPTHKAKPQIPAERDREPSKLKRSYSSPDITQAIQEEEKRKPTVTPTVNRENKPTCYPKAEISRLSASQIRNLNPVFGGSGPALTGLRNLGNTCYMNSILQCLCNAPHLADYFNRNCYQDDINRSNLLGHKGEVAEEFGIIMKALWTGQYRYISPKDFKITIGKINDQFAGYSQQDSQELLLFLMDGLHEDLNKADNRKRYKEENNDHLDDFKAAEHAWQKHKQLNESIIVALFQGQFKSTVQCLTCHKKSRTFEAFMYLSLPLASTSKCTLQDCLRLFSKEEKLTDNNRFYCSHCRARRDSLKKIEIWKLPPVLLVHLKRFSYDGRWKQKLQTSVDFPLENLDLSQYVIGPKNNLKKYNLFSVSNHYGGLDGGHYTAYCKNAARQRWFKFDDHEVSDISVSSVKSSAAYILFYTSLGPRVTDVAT

For `CCOCc1ccc(C(=O)N[C@H](C)c2nc3cc(-c4ccc(OC)cc4)ncn3n2)cc1`, the IC50 is > 40 µM (inactive). Turning to `Fc1cc(F)c2[nH]cc(-c3nnnn3-c3ccc4ccccc4c3)c2c1`, the IC50 is > 40 µM (inactive). As to `CCC(C)N1CNc2c(c(=O)[nH]c(=O)n2Cc2ccco2)C1` (stereo not drawn), the IC50 was > 40 µM (inactive).

Regarding `COc1ccc(/C=C/C(=O)Nc2cccc(S(=O)(=O)Nc3ccccc3Cl)c2)c(OC)c1`, the IC50 was > 40 µM (inactive). Take `CN1c2ccccc2C(=O)NC12CCN(C(=O)NCc1ccccc1)CC2`: the IC50 is > 40 µM (inactive). With `Cc1cccc(C(=O)Nc2cccc(SC(C(=O)Nc3ccc(Cl)c(C(=O)O)c3)c3ccccc3)c2)c1` (stereo not drawn), the IC50 was 23.4 µM. The figure for `O=C(Nc1ccccc1Cl)c1cc(-c2ccncc2)n[nH]1` is > 40 µM (inactive); for `O=C(NCC1(c2ccccc2)CCC1)c1nc2n(n1)-c1ccccc1S(=O)(=O)N2` it is > 40 µM (inactive). Consider `CCCCN1CC(C(=O)Nc2ccc(C(=O)Nc3ccc(C(N)=O)cc3)cc2)CC1=O` (stereo not drawn), for which the IC50 was > 40 µM (inactive). Take `COC(=O)c1ccc(Cn2nnc3c(=O)[nH]c(C4CCCN(S(=O)(=O)c5ccc(C)cc5)C4)nc32)cc1` (stereo not drawn): the IC50 was > 40 µM (inactive). `COc1cccc(C2c3[nH]c4ccccc4c3C[C@@H]3C(=O)N(C4CC4)CC(=O)N23)c1` (stereo partly drawn): the IC50 was > 40 µM (inactive). For the compound `CCc1ccc(CN(C)C(=O)c2ccc(NS(=O)(=O)c3ccc(F)c(F)c3)cc2)cc1`, the IC50 is > 40 µM (inactive).

Consider `COc1cccc(NC(=O)CCc2nnc3n(CCCOC(C)C)c(=O)c4ccccc4n23)c1`, for which the IC50 was > 40 µM (inactive). Consider `CN(CC(=O)Nc1ccc(Cl)cc1)c1cnn(-c2nc3ccccc3[nH]2)c(=O)c1Cl`, for which the IC50 is > 40 µM (inactive).

With `COc1cc2c(=O)n(Cc3ccccc3)c(=O)n(CC(=O)N3CCCc4ccccc43)c2cc1OC`, the IC50 is > 40 µM (inactive). For `O=C1c2ccccc2-c2nnc(-c3ccncc3)cc21`, the IC50 was 14 µM. Take `COc1cccc(N2CCCN(C(=O)c3ccc4nc(C)[nH]c4c3)CC2)c1`: the IC50 was > 40 µM (inactive). `O=C(COc1cccc(-c2noc(-c3ccc([N+](=O)[O-])cc3)n2)c1)Nc1ccccc1`: the IC50 was > 40 µM (inactive). `O=C(c1ccc2occc2c1)N1CCC(S(=O)(=O)c2ccc(-c3ccco3)cc2)CC1`: the IC50 was > 40 µM (inactive). Consider `CSc1cccc(NC(=O)c2cc(-c3cccnc3)n[nH]2)c1`, for which the IC50 is > 40 µM (inactive). Turning to `COc1ccc(C(NC(=O)c2nc3n(n2)-c2ccccc2S(=O)(=O)N3)C(C)C)cc1` (stereo not drawn), the IC50 is > 40 µM (inactive). In the case of `Cn1cc(NC(=O)Nc2cccc3ccccc23)c2ccccc21`, the IC50 is > 40 µM (inactive). As for `O=C(Cn1c(=O)n(Cc2ccccc2)c(=O)c2ncccc21)NCc1ccccc1Cl`, the IC50 was > 40 µM (inactive). Take `COc1ccc(C(=O)COC(=O)c2cccc(NC(=O)c3ccc(Cl)cc3)c2)cc1`: the IC50 is > 40 µM (inactive).

With `O=C(Cn1c(=O)n(Cc2ccc(C(=O)NCc3ccco3)cc2)c(=O)c2ccccc21)Nc1ccc2c(c1)OCCO2`, the IC50 is > 40 µM (inactive).

Consider `Cc1ccc2[nH]cc(S(=O)(=O)c3cc(F)cc(F)c3)c(=O)c2c1`, for which the IC50 is > 40 µM (inactive). Take `O=C(NC1CCCC1)c1ccc(-c2ccc(S(=O)(=O)NCc3ccccc3)cc2)cc1`: the IC50 is > 40 µM (inactive).

Regarding `Cc1ccc(CNC(=O)c2cccc(N3C(=O)N4CCc5c([nH]c6ccccc56)[C@@]4(C)C3=O)c2)cc1`, the IC50 is > 40 µM (inactive). With `CSc1nc2ncn(CC(=O)Nc3ccc(Br)cc3)c(=O)c2s1`, the IC50 is > 40 µM (inactive). For the compound `Cc1cc(C)c(O)c(-c2cc(C(=O)Nc3ccccc3Cl)[nH]n2)c1`, the IC50 is > 40 µM (inactive).

For `CC(C)=CCc1c(O)cc2c(c1C)OC(=O)c1c(C)c(Cl)c(O)c(CO)c1O2`, the IC50 is > 40 µM (inactive).

As for `CCN(c1ccc(NC(=O)COC(=O)c2cccnc2Nc2cccc(C(F)(F)F)c2)cc1)C(C)C`, the IC50 is > 40 µM (inactive).

`COc1ccc(CCNC(=O)Cn2c(=O)n(-c3ccc(CC(=O)NCCc4ccccc4)cc3)c(=O)c3ccccc32)cc1OC`: the IC50 was > 40 µM (inactive). With `Cc1c(OCC(=O)NCc2ccccc2Cl)ccc2c3c(c(=O)oc12)CCC3`, the IC50 was > 40 µM (inactive). In the case of `O=C(CCSc1ccc(Cl)cc1)c1cccs1`, the IC50 was > 40 µM (inactive). In the case of `CSc1cccc(NC(=O)C2C3C=CC4(O3)C2C(=O)N(CCc2ccccc2)C4C(=O)NC2CCCCC2)c1` (stereo not drawn), the IC50 was > 40 µM (inactive). Regarding `Nc1ncnc2c1ncn2[C@@H]1O[C@H](CO)C[C@@H]1O`, the IC50 was > 40 µM (inactive). On to `Cc1nc(SCC(=O)NC(C)c2ccccc2)c2oc3ccccc3c2n1` (stereo not drawn), for which the IC50 is > 40 µM (inactive). Consider `CC(=O)Nc1ccc(S(=O)(=O)NCc2ccc(C(=O)NCCc3ccc(Cl)cc3)cc2)cc1`, for which the IC50 was > 40 µM (inactive).

In the case of `COc1ccccc1CNC(=O)CCCCn1c(=O)c2ccccc2n(Cc2ccc(C)cc2)c1=O`, the IC50 was > 40 µM (inactive).

Take `C=C/C(=C/C(=O)C[C@H](C)C[C@@H](C)CC[C@H](O)[C@H](C)C(=O)CC(O)[C@H](C)[C@@H](C)OC(=O)C[C@@H](O)C1=C(C)C(=O)OC1=O)CC` (stereo partly drawn): the IC50 was 2.6 µM. Take `O=C(Cn1c(=O)n(CCC(=O)NC2CCCC2)c(=O)c2ccccc21)NCc1ccccc1Cl`: the IC50 is > 40 µM (inactive).

On to `Cc1ccc(C(=O)c2cn(CC(=O)Nc3ccccc3)c3ccc(C)cc3c2=O)cc1`, for which the IC50 is > 40 µM (inactive). As for `O=C(Cn1ncc2c(=O)oc3ccccc3c21)NCc1ccc2c(c1)OCO2`, the IC50 is > 40 µM (inactive). As to `COc1ccc(-c2nc(-c3cn(-c4ccccc4)nn3)no2)c(OC)c1`, the IC50 is > 40 µM (inactive). As for `O=C(NC1CCCCCC1)c1cccc(S(=O)(=O)Nc2cc(C(F)(F)F)ccc2Cl)c1`, the IC50 was > 40 µM (inactive).

Consider `O=C(CCCn1c(=O)c2cc(Cl)ccc2n(CC(=O)Nc2cccc(F)c2)c1=O)NCc1ccco1`, for which the IC50 is > 40 µM (inactive).

As for `COc1ccc2[nH]c(=O)c(CN(C)C(=O)c3ccc([N+](=O)[O-])cc3)cc2c1`, the IC50 was > 40 µM (inactive). Consider `O=C(Nc1cccc(Cl)c1)c1ncn2c1CNS(=O)(=O)c1ccccc1-2`, for which the IC50 was > 40 µM (inactive). For the compound `Cc1ccc(C)c(NC(=O)Cn2cc(C(=O)C3CC3)c3ccccc32)c1`, the IC50 was 27.3 µM. With `Cc1nn(-c2nc3ccccc3o2)c2c1C(c1cccc([N+](=O)[O-])c1)CC(=O)N2` (stereo not drawn), the IC50 was > 40 µM (inactive). Take `CNC(=O)c1c2n(c3ncccc13)CCN(S(=O)(=O)c1ccc(-c3ccccc3)cc1)C2`: the IC50 was > 40 µM (inactive). `O=c1[nH]c(C2CCN(S(=O)(=O)c3ccc(S(=O)(=O)NC4CCCCC4)cc3)CC2)nc2c1nnn2Cc1ccc(F)cc1`: the IC50 was > 40 µM (inactive). As for `COc1ccc(C(=O)Nc2ccccc2C(=O)NC(Cc2ccc(O)cc2)C(=O)NNC(=O)c2ccccc2Cl)cc1` (stereo not drawn), the IC50 was > 40 µM (inactive). In the case of `Cc1ccc(-c2cc(C(F)F)n3ncc(C(=O)Nc4ccc(O)cc4)c3n2)cc1`, the IC50 was > 40 µM (inactive). For the compound `O=C(CCCCCn1c(=O)c2sccc2n(CC(=O)c2ccc(F)cc2)c1=O)NCc1ccccc1Cl`, the IC50 is > 40 µM (inactive). As for `Oc1cccc2nc3c(O)cccc3nc12`, the IC50 is 8.85 µM. As to `COC(=O)c1ccc2c(=O)n(CCCCCC(=O)NCCC3=CCCCC3)c(=O)[nH]c2c1`, the IC50 is > 40 µM (inactive). The figure for `COc1ccc(CNC(=O)c2ccc3c(=O)nc4c(-c5cccc(C)c5)n[nH]n4c3c2)cc1` is > 40 µM (inactive); for `O=C(Cn1nc(-c2ccccc2)cc(NC(=O)c2ccccc2)c1=O)Nc1ccc(F)cc1` it is > 40 µM (inactive). Then `COc1ccc(-c2noc(CC(=O)Nc3cccc(OC)c3)n2)cc1`, with > 40 µM (inactive); and `O=C(CCCC(=O)N(c1ccc2c(c1)OCCO2)C(C(=O)NC1CCCCC1)c1ccc(F)cc1)Nc1ccccn1` (stereo not drawn), with > 40 µM (inactive); and `CC(C)c1ccc(NC(=O)COC(=O)c2ccc(NS(=O)(=O)c3ccc4c(c3)OCCO4)cc2)cc1`, with > 40 µM (inactive).

`Cc1ccccc1NC(=O)Cn1c(=O)n(-c2ccc(CC(=O)NCCc3ccccc3)cc2)c(=O)c2sccc21`: the 50% inhibitory concentration (IC50) was 36.8 µM. As for `Cc1cccc(NC(=O)c2noc3c2CCc2sccc2-3)n1`, the IC50 is > 40 µM (inactive). Take `CCOc1ccc(-n2ccnc(SCC(=O)Nc3ccccc3F)c2=O)cc1`: the IC50 was > 40 µM (inactive). The figure for `CNc1ncc(C(=O)N2CCOC(C(=O)N3CCCCCC3)C2)cn1` (stereo not drawn) is > 40 µM (inactive). The figure for `Cc1ccc(NC(=O)COc2ccccc2/C=C2/NC(=O)N(Cc3ccc(F)cc3)C2=O)cc1` is > 40 µM (inactive).

The values are drawn from PubChem BioAssay AID1645862 (Buhrlage Lab, Dana-Farber Cancer Institute and Novartis …, 2021).
